Source: article PMC11084632, “Pharmacological Evaluation of Cannabinoid Receptor Modulators Using GRABeCB2.0 Sensor” (International Journal of Molecular Sciences, 2024)
Read-outs that look alike come from different tables or passages of the source.

Assays:
CB1 receptor = settings: cited from earlier work
CB1R = settings: cited from earlier work
GRABeCB2.0 sensor [1] = molecular target: T1, GRABeCB2.0 sensor (Homo sapiens, UniProt P21554, S383T, form not given); settings: increasing concentrations; cited from earlier work
GRABeCB2.0 sensor [2] = molecular target: T1, GRABeCB2.0 sensor; format: cell-based; settings: for Effect on CP55940 fluorescence signal/maximal fluorescence: modulator 1 μM, varying CP55940
Description: For reported allosteric modulators, the binding assay was modified to test the ligand for basal activity, followed by the addition of the agonist, similar to the antagonist assay. […] The compound of interest was varied across concentrations ranging (as the case may be) from 1 nM, 3 nM, 10 nM, 30 nM, 100 nM, 300 nM, 1 μM, and 10 μM and performed in triplicate. The concentration of the compound depended on the modulator itself. The concentrations calculated were the final concentration inside the well of the 96-well plate, along with the 1% DMSO and 0.5 mg/mL BSA (See Supplementary Materials, Figure S1).
Statistical Methods: All GRABeCB2.0 fluorescent signals (in cases noted) are expressed as normalized ΔF/F0 as calculated for the fluorescence assay in the PHERAstar FSX Plate reader. EC50/IC50 values were calculated using GraphPad Prism 9 by fitting data to a nonlinear regression model with normalized variable slope (four parameters, normalized where indicated) or using three-parameter response. Data represent mean ± SEM from a minimum of at least three independent experiments performed in triplicates.

GRABeCB2.0 sensor [3] = molecular target: T1, GRABeCB2.0 sensor; format: cell-based
Description: (§1) Stable eCB2.0 sensor cell line: A stable sensor cell line was established in HEKtsA201 cells (Sigma-Aldrich, St. Louis, MO, USA) using the PiggyBac Transposon-based system (SBI, Palo Alto, CA, USA). Briefly, the open reading frame of the eCB2.0 sensor from eCB2.0 to C1^20 was cloned into the PB514B shuttle vector using In Fusion cloning (Takara, San Jose, CA, USA). The modified shuttle sequence was obtained with Sanger sequencing (Psomagen, Rockville, MD, USA) and verified (MacVector, Apex, NC, USA). HEKtsA201 cells were maintained in DMEM (Thermo Fisher, Waltham, MA, USA: Gibco #10569-010) supplemented with 10% fetal bovine serum (Gibco #A31605-01) and 1% penicillin/streptomycin (Gibco #15140-122) at 37 °C and 8% CO2. Cells were plated on 12-well tissue culture plates at approximately 50% confluency. This low cell density was used to avoid overgrowth of the cells during the delay between transfection and selection for stable integration. After 3 h, the eCB2.0 shuttle was co-transfected at a plasmid mass ratio of 10:1 with the SBI Transposase vector (PB210PA) using deacylated PEI [71]. All transfected wells were checked the next day for expression of the sensor by presence of basal cpeGFP fluorescence. […] Wells were selected for integration beginning at 4 days post transfection with […] Puromycin (Gibco #A11138-03). Selection was continued throughout all passages of the stable line. Cells were transferred to T25 (25 cm^2) tissue culture flasks after 10 to 14 days of selection.
Assay Procedure: The DMEM solution was removed from the T25 flat-sided cell culture flask by decantation. […] A total of 7 mL of fresh DMEM was added, and cells were gently pipetted to remove any remaining cells from the flask wall. The total volume (10 mL) was transferred to a 15 mL Falcon tube and centrifuged at 800× g for 4 min at 23 °C. Upon completion of centrifugation, the supernatant was removed and discarded, leaving behind a small pellet of cells that were resuspended in 4 mL of fresh DMEM. The cell suspension was mixed in a 1:1 ratio with 0.4% TrypanBlue ([…] each) and […] solution was added to each side of a Countess Cell Counting Chamber and inserted into the Countess II Automated Cell Counter (Thermo Fisher, Waltham, MA, USA). The concentration of cells as adjusted to 0.7–1.0 million cells/mL with DMEM complete media and […] was added to the desired wells of a clear bottom black plastic tissue culture treated 96-well plate. The plate was incubated at 37 °C and 8% CO2 for a 24–48 h period. After incubation, the […] DMEM buffer was removed and replaced with […] of DPBS buffer containing calcium and magnesium (Gibco #14040-133). After the addition of the DPBS buffer, a baseline reading of the cells was taken using the PHERAstar FSX microplate reader (BMG/Labtech, Cary, NC, USA) to establish the F0 or initial fluorescence (see Figure 1A,B).
(§2) When running the assay for an agonist, […] of the compound and […] of additional DPBS buffer was added to the wells. A concentration curve was made for the modulator with the final concentrations in the wells holding the cells ranging from 1 pM to 10 mM with 1% DMSO BSA in a total volume of 150 mL. […] In either assay, the cannabinoid ligands were added, followed by incubation of the compound on the cells at 37 °C for 5 min before taking a fluorescence reading using the PHERAstar FSX microplate reader equipped with a GFP filter cube module (Ex. 485 nm/Em. 520 nm). The recorded values were the F or final fluorescence.
For reported allosteric modulators, the binding assay was modified to test the ligand for basal activity, followed by the addition of the agonist, similar to the antagonist assay.

GRABeCB2.0 sensor [4] = molecular target: T1, GRABeCB2.0 sensor; format: cell-based; settings: for EC50: HEK293 cells, without BSA, ΔF/F0 4-5 min, read-out: EC50 at inducing GRABeCB2.0 fluorescent signal; for Effect on GRABeCB2.0 basal fluorescence: no agonist
Description: as §1
Assay Procedure: The DMEM solution was removed from the T25 flat-sided cell culture flask by decantation. […] A total of 7 mL of fresh DMEM was added, and cells were gently pipetted to remove any remaining cells from the flask wall. The total volume (10 mL) was transferred to a 15 mL Falcon tube and centrifuged at 800× g for 4 min at 23 °C. […] After the addition of the DPBS buffer, a baseline reading of the cells was taken using the PHERAstar FSX microplate reader (BMG/Labtech, Cary, NC, USA) to establish the F0 or initial fluorescence (see Figure 1A,B).
as §2, with “wells.” for “wells. A concentration curve was made for the modulator with the final concentrations in the wells holding the cells ranging from 1 pM to 10 mM with 1% DMSO BSA in a total volume of 150 mL.”
Statistical Methods: All GRABeCB2.0 fluorescent signals (in cases noted) are expressed as normalized ΔF/F0 as calculated for the fluorescence assay in the PHERAstar FSX Plate reader.

[5] = read-out: GRABeCB2.0 IC50 0.5 mg/mL BSA
[6] = reported, read-out: binding Ki (reported)

T1 sequence (P21554 whole entry S383T, looked up, form open): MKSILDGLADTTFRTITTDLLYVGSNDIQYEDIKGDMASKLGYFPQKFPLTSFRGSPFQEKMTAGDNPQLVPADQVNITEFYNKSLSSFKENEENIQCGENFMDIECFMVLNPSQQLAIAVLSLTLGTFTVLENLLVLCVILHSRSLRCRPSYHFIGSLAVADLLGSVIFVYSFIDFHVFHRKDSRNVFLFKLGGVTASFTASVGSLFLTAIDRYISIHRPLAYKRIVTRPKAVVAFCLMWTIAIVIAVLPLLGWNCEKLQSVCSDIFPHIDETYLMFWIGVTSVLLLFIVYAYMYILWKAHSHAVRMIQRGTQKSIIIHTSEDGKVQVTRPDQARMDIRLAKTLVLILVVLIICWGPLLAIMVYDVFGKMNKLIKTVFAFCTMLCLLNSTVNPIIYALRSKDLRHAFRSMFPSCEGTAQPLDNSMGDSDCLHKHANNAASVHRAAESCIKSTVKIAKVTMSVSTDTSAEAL

In the case of `CCCCC/C=C\C/C=C\C/C=C\C/C=C\CCCC(=O)NCCCl` [ACEA, (5Z,8Z,11Z,14Z)-N-(2-chloroethyl)icosa-5,8,11,14-tetraenamide], the EC50 (CB1 receptor; read-out: reported EC50 for the CB1 receptor) is given as 51 nM, the Ki (CB1R; Supplementary Table 1, # literature reported values, read-out: CB1R wild-type binding Ki) is given as 1.4 nM and the Ki (CB1R; read-out: Ki for CB1 receptor) is given as 1.5 to 5 nM.
In the case of `C=C(C)[C@@H]1CCC(C)=C[C@H]1c1c(O)cc(CCCCC)cc1O` [CBD, cannabidiol], the “Effect on basal GRABeCB2.0 fluorescent signal (reported)” value (GRABeCB2.0 sensor [1]) is given as “did not affect basal GRABeCB2.0 fluorescent signal”.
For `O=[N+]([O-])C[C@H](c1ccccc1)c1c(-c2ccccc2)[nH]c2ccccc12` [GAT228], the “Effect on CP55940 fluorescence signal/maximal fluorescence” value (GRABeCB2.0 sensor [2]) was “did not shift the fluorescence signal”.
In the case of `O=[N+]([O-])C[C@@H](c1ccccc1)c1c(-c2ccccc2)[nH]c2ccccc12` [GAT229], the “Effect on CP55940-activated GRABeCB2.0 fluorescence” value (GRABeCB2.0 sensor [3]) is reported as “more potent enhancer of sensor fluorescence than GAT228”, the “Effect on CP55940 fluorescence signal/maximal fluorescence” value (GRABeCB2.0 sensor [2]) is reported as “increased the maximal fluorescence” and the “apparent α (Schild-like analysis)” value (GRABeCB2.0 sensor [2]; range of CP55940 concentrations) is reported as > 1.
In the case of `CC(C)[C@H](N=C(NS(=O)(=O)c1ccc(Cl)cc1)N1C[C@H](c2ccccc2)C(c2ccc(Cl)cc2)=N1)C(N)=O` [JD5037], the Ki (CB1R; read-out: binding Ki on CB1R) is listed as 0.5 nM, the IC50 (GRABeCB2.0 sensor [3]; read-out: GRABeCB2.0 IC50) is listed as 148 ± 12 nM and the IC50 (GRABeCB2.0 sensor [3]; [5]) is listed as 29 ± 3.5 nM.
For `C/C(N)=N\C(=N/S(=O)(=O)c1ccc(C(F)(F)F)cc1)N1C[C@H](c2ccccc2)C(c2ccc(Cl)cc2)=N1` [MRI-1867], the IC50 (CB1 receptor; reported, read-out: functional potency IC50 (reported)) is listed as 40 nM, the Ki (CB1R; [6]) is listed as 2.6 nM and the IC50 (GRABeCB2.0 sensor [3]; read-out: GRABeCB2.0 IC50) is listed as 105 ± 5.4 nM. It also gave an IC50 (GRABeCB2.0 sensor [3]; [5]) of 90 ± 5 nM.
In the case of `CC(=O)NC(N)=NC(=NS(=O)(=O)c1ccc(C(F)(F)F)cc1)N1C[C@H](c2ccccc2)C(c2ccc(Cl)cc2)=N1` [MRI-1891], the IC50 (CB1 receptor; printed after 'bias toward inhibition of the β-arrestin pathway, over G-protein signaling pathway', read-out: IC50 (reported)) is given as 6 nM and the Ki (CB1R; [6]) is given as 0.5 nM.
For `CC(=O)OCCn1c(C)c(C)s/c1=N\C(=O)C1C(C)(C)C1(C)C` [MRI-2594], the EC50 (GRABeCB2.0 sensor [4]) was 527 ± 27 nM.
`CC(=O)OCCn1c(=NC(=O)C2C(C)(C)C2(C)C)sc2cc(C)ccc21` [MRI-2687] showed an EC50 (GRABeCB2.0 sensor [4]) of 1300 nM.
With `CCc1c(C(=O)NCCc2ccc(N3CCCCC3)cc2)[nH]c2ccc(Cl)cc12` [ORG27569] the “Effect on GRABeCB2.0 basal fluorescence” value (GRABeCB2.0 sensor [4]) was “did not significantly alter basal fluorescence”, the “Effect on CP55940-activated GRABeCB2.0 fluorescence” value (GRABeCB2.0 sensor [3]) was “void of any concentration-dependent effects” and the IC50 (GRABeCB2.0 sensor [3]; read-out: IC50 as weak antagonists (normalized curve)) was 787 nM.
In the case of `CCNC1(C(N)=O)CCN(c2ncnc3c2nc(-c2ccccc2Cl)n3-c2ccc(Cl)cc2)CC1` [Otenabant], the IC50 (CB1 receptor; read-out: reported IC50) is given as […] and the Ki (CB1R; read-out: binding Ki for CB1R) is given as 0.7 nM.
With `CC(=O)[C@H]1CC[C@H]2[C@@H]3CC=C4C[C@@H](O)CC[C@]4(C)[C@H]3CC[C@]12C` [Pregnenolone] the “Effect on GRABeCB2.0 basal fluorescence” value (GRABeCB2.0 sensor [4]) was “did not significantly alter basal fluorescence”, the “Effect on CP55940-activated GRABeCB2.0 fluorescence” value (GRABeCB2.0 sensor [3]) was “void of any concentration-dependent effects” and the “Effect on 2-AG-activated GRABeCB2.0 fluorescence” value (GRABeCB2.0 sensor [3]; 20 μM 2-AG) was “this behavior could be replicated”.
In the case of `CC(=O)NC(=N)NC(=NS(=O)(=O)c1ccc(Cl)cc1)N1C[C@@H](c2ccccc2)C(c2ccc(Cl)cc2)=N1` [R-MRI-1776], the “CB1 binding of R-enantiomers on the sensor” value (GRABeCB2.0 sensor [3]) is reported as “weak CB1 binding”.
With `CC(=O)NC(=N)NC(=NS(=O)(=O)c1ccc(C(F)(F)F)cc1)N1C[C@@H](c2ccccc2)C(c2ccc(Cl)cc2)=N1` [R-MRI-1891] the “CB1 binding of R-enantiomers on the sensor” value (GRABeCB2.0 sensor [3]) was “weak CB1 binding”.
In the case of `C[C@H](NC(=O)C(C)(C)Oc1ccc(C(F)(F)F)cn1)[C@@H](Cc1ccc(Cl)cc1)c1cccc(C#N)c1` [Taranabant], the Ki (CB1R; read-out: reported Ki) is listed as 0.13 nM.
In the case of Pregnenolone sulfate, the “Effect on CP55940-activated GRABeCB2.0 fluorescence” value (GRABeCB2.0 sensor [3]) is reported as “extinguished CP fluorescence but showed no concentration-dependent effects”.
